Like-named read-outs stand apart in the source and are kept apart here.
Key:
Assay in all cases: Kinase profiling in a biochemical assay panel (mobility shift assays and ELISA), %-inhibition at 1 μM; selectivity entropy
[1] = target: panel of more than 300 wild-type and mutant kinases (313 kinase panel) (Homo sapiens, UniProt P06241)
[2] = target: panel of more than 300 wild-type and mutant kinases (313 kinase panel) (Homo sapiens, UniProt P08069)
[3] = target: panel of more than 300 wild-type and mutant kinases (313 kinase panel) (Homo sapiens, UniProt P11802)
[4] = target: panel of more than 300 wild-type and mutant kinases (313 kinase panel) (Homo sapiens, UniProt P22607, K650M)
[5] = target: T1, panel of more than 300 wild-type and mutant kinases (313 kinase panel) (Homo sapiens, UniProt P41743)
T1 sequence (P41743 1-596): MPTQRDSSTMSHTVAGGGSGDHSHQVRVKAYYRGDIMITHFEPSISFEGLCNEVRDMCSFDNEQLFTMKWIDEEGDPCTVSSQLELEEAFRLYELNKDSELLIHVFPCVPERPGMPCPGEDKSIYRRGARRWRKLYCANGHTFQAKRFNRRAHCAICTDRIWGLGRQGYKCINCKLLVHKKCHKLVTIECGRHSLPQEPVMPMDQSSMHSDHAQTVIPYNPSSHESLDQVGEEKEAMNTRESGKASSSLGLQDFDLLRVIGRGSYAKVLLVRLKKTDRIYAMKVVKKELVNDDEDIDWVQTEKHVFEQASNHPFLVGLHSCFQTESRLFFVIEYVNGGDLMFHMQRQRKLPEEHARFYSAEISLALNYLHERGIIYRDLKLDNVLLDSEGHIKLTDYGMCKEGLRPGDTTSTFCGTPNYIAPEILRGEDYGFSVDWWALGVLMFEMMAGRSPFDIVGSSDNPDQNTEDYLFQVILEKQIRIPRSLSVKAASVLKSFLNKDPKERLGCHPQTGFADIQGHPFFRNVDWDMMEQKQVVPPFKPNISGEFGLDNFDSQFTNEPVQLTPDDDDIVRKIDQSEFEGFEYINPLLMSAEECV

[6] = target: panel of more than 300 wild-type and mutant kinases (313 kinase panel) (Homo sapiens, UniProt P49841)
[7] = target: panel of more than 300 wild-type and mutant kinases (313 kinase panel) (Homo sapiens, UniProt P54646)
[8] = target: panel of more than 300 wild-type and mutant kinases (313 kinase panel) (Homo sapiens, UniProt Q13882)
[9] = target: T2, panel of more than 300 wild-type and mutant kinases (313 kinase panel) (Homo sapiens, UniProt Q15831)
T2 sequence (Q15831 1-433): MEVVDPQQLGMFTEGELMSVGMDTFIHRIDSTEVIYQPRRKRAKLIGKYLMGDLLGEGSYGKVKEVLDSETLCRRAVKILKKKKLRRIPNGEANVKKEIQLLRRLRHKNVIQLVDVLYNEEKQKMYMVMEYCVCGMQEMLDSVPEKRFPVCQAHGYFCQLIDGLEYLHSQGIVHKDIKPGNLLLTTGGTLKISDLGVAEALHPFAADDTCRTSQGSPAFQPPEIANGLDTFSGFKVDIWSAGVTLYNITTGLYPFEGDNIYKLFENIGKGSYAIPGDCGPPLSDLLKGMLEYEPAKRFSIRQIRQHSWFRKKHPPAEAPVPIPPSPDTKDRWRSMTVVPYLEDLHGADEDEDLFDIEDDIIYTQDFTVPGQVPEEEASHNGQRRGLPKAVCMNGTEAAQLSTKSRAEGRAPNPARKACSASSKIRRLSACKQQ

[10] = target: panel of more than 300 wild-type and mutant kinases (313 kinase panel) (Homo sapiens, UniProt Q16620)
[11] = target: T3, panel of more than 300 wild-type and mutant kinases (313 kinase panel) (Homo sapiens, UniProt Q96PN8)
T3 sequence (Q96PN8 1-268): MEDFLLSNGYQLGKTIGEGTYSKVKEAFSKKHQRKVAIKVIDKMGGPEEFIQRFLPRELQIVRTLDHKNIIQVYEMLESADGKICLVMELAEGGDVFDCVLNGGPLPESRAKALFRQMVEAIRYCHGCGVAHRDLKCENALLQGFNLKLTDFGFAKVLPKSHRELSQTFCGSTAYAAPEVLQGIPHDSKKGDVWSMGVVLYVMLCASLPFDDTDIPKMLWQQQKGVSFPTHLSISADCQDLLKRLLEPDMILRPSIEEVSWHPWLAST

[12] = target: panel of more than 300 wild-type and mutant kinases (313 kinase panel) (Homo sapiens, UniProt Q9H2G2)
[13] = target: panel of more than 300 wild-type and mutant kinases (313 kinase panel) (Homo sapiens, UniProt Q9P1W9)
[14] = kinase CDK4/CycD3, 1 μM compound
[15] = kinase FGFR3(K650M), compound at 1 μM
[16] = kinase AMPKα2/β1/γ1, 1 μM compound

Sequence of panel of more than 300 wild-type and mutant kinases (313 kinase panel) (Homo sapiens, UniProt Q13882) (Q13882 whole entry, change not shown): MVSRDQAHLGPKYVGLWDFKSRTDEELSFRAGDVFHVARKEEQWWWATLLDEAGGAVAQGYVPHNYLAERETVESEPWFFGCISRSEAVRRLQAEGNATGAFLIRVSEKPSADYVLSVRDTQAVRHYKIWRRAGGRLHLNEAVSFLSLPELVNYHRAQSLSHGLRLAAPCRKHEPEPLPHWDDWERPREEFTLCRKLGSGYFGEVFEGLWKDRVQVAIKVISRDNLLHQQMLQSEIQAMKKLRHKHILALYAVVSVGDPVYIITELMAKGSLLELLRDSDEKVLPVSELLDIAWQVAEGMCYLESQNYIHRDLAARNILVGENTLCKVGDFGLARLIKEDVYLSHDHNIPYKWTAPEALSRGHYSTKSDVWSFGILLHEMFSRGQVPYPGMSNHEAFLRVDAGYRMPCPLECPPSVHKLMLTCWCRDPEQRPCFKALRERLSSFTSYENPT
Sequence of panel of more than 300 wild-type and mutant kinases (313 kinase panel) (Homo sapiens, UniProt P22607, K650M) (P22607 23-806 K650M): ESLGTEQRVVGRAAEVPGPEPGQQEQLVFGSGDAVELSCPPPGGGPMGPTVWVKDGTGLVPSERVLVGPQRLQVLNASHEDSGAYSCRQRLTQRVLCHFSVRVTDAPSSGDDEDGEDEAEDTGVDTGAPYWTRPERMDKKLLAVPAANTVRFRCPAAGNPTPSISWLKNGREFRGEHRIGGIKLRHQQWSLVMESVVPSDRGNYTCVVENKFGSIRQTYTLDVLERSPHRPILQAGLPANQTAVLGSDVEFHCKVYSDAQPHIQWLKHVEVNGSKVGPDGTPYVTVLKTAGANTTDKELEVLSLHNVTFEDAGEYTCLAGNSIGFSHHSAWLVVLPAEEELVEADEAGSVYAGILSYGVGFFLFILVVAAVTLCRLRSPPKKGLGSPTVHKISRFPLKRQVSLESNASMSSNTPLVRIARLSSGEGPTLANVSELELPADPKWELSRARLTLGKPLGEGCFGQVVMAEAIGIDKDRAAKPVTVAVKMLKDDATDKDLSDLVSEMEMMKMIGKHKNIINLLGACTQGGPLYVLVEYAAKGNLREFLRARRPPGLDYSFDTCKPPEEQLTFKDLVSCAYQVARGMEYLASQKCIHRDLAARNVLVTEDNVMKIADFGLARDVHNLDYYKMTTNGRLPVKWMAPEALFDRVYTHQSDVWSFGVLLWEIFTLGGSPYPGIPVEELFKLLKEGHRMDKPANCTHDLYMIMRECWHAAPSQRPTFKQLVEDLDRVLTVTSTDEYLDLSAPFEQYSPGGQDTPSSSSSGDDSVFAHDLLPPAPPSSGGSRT
Sequence of panel of more than 300 wild-type and mutant kinases (313 kinase panel) (Homo sapiens, UniProt P06241) (P06241 whole entry, change not shown): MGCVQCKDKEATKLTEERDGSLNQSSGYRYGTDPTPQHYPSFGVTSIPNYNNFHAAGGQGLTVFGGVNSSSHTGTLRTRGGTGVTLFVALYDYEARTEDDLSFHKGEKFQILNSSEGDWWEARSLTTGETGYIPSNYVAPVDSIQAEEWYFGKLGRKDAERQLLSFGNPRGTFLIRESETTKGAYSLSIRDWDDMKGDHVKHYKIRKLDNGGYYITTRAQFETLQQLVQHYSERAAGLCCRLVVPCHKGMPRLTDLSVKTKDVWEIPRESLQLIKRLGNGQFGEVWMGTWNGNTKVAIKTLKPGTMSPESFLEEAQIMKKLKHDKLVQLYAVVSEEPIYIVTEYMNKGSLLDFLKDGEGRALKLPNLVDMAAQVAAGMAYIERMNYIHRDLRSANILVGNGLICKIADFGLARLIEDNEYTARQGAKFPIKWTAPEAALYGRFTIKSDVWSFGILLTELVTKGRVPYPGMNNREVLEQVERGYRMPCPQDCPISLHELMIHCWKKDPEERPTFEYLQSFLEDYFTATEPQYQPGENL
Sequence of panel of more than 300 wild-type and mutant kinases (313 kinase panel) (Homo sapiens, UniProt P11802) (P11802 whole entry, stated change not applied): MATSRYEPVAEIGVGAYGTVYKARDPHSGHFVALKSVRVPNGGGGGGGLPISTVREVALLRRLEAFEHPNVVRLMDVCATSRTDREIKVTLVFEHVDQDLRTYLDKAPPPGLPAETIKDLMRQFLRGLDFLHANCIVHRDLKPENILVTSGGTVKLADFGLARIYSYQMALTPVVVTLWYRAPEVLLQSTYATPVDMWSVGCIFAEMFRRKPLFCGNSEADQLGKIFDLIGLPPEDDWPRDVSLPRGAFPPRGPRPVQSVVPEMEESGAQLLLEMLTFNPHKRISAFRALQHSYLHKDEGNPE

| Compound | %-inhibition of FYN ([1]; kinase FYN, compound at 1 μM) | %-inhibition of IGF1R ([2]; kinase IGF1R, compound at 1 μM) | %-inhibition, CDK4/CycD3 [3, 14] | %-inhibition of FGFR3(K650M) [4, 15] | %-inhibition of PKCι ([5]; kinase PKCι, 1 μM) | %-inhibition of GSK3β ([6]; kinase GSK3β, compound at 1 μM) | %-inhibition, AMPKα2/β1/γ1 [7, 16] | %-inhibition, BRK ([8]; kinase BRK, 1 μM compound) | %-inhibition of LKB1 ([9]; kinase LKB1, compound at 1 μM) | %-inhibition of TRKB ([10]; kinase TRKB, 1 μM) | %-inhibition of TSSK3 ([11]; kinase TSSK3, compound at 1 μM) | %-inhibition of SLK ([12]; kinase SLK, 1 μM) | %-inhibition of PIM2 ([13]; kinase PIM2, 1 μM) | %-inhibition, AMPKα2/β1/γ1 ([7]; 1 µM) | %-inhibition of LKB1 ([9]; 1 µM) | %-inhibition, CDK4/CycD3 ([3]; 1 µM) | further results |
| --- | --- | --- | --- | --- | --- | --- | --- | --- | --- | --- | --- | --- | --- | --- | --- | --- | --- |
| CO[C@H]1C[C@@H]2CC[C@@H](C)[C@@](O)(O2)C(=O)C(=O)N2CCCC[C@H]2C(=O)O[C@H]([C@H](C)C[C@@H]2CC[C@@H](OCCO)[C@H](OC)C2)CC(=O)[C@H](C)/C=C(\C)[C@@H](O)[C@@H](OC)C(=O)[C@H](C)C[C@H](C)/C=C/C=C/C=C/1C [everolimus] | -0.928% | -3.24% | -9% | 2.71% | 3.78% | -6% | -6% | -4.32% | -9% | -0.542% | -3% | -2.67% | -7% |  |  |  |  |
| N#CC[C@H](C1CCCC1)n1cc(-c2ncnc3[nH]ccc23)cn1 [ruxolitinib] | 11% | 1.31% | -1.74% | 16% | 1.52% | 10% |  | -4% |  | 88% | -3% | 7% | -4% | 7.49% | 0.546% |  |  |
| CCCS(=O)(=O)Nc1ccc(F)c(C(=O)c2c[nH]c3ncc(-c4ccc(Cl)cc4)cc23)c1F [vemurafenib] | 81% | 10% | -3.26% | 8% | -16% | 8% | 6.49% | 98% | 1.13% | 11% | -3.19% | 43% | -2% |  |  |  |  |
| O=S(=O)(c1cccc2cnccc12)N1CCCNCC1 [fasudil] | 8.5% | -13% | -2.33% | -0.618% | 14% | -8% | 5% | -6% | 6% | -2.66% | -6% | 4.5% | -1.66% |  |  |  |  |
| CS(=O)(=O)CCNCc1ccc(-c2ccc3ncnc(Nc4ccc(OCc5cccc(F)c5)c(Cl)c4)c3c2)o1 [lapatinib] | 1.29% | 3.73% |  | 1.23% | -0.659% | -10% |  |  | 4% | -10% | 0.192% |  | 0.254% | -7.39% |  | 1.35% | %-inhibition, BRK ([8]; 1 µM): 63%; %-inhibition of SLK ([12]; 1 µM): 10% |
| C#Cc1cccc(Nc2ncnc3cc(OCCOC)c(OCCOC)cc23)c1 [erlotinib] |  |  |  |  |  |  |  |  |  |  |  |  |  | 4.43% | 2% | 1.86% | %-inhibition of FYN ([1]; 1 µM): 34%; %-inhibition of IGF1R [2]: 7%; %-inhibition of FGFR3(K650M) ([4]; 1 µM): 87%; %-inhibition of PKCι ([5]; 1 µM): 9%; %-inhibition of GSK3β ([6]; 1 µM): -4.63%; %-inhibition, BRK ([8]; 1 µM): 47%; %-inhibition of TRKB ([10]; 1 µM): 0.183%; %-inhibition of TSSK3 ([11]; 1 µM): -7%; %-inhibition of SLK ([12]; 1 µM): 89%; %-inhibition of PIM2 ([13]; 1 µM): 9% |
| Cc1cn(-c2cc(NC(=O)c3ccc(C)c(Nc4nccc(-c5cccnc5)n4)c3)cc(C(F)(F)F)c2)cn1 [nilotinib] | 59% | -11% |  | -21% | -8% | 10% | -0.54% | 75% |  |  | 12% | -41% | 7% |  | -6% | -4% | %-inhibition of TRKB ([10]; 1 µM): 56% |
| CC(=O)Nc1cccc(-n2c(=O)n(C3CC3)c(=O)c3c(Nc4ccc(I)cc4F)n(C)c(=O)c(C)c32)c1 [trametinib] | 9% | -10% | 5.62% | -0.169% | 9% | -15% | 1.21% | -5.53% | 2.38% | -3.4% | -8% | -2.6% | -4% |  |  |  |  |

From article PMC3961306, “Comparison of the Cancer Gene Targeting and Biochemical Selectivities of All Targeted Kinase Inhibitors Approved for Clinical Use” (PLoS ONE, 2014)
